From US20260034130A1 (priority 2022, published 2026)
Where two headings read alike, the source gives them in different places.

What was measured:
[1] = test system: patients undergoing TKR (total knee replacement); settings: 25 mg twice daily; cited from earlier work
[2] = test system: patients with acute ischemic stroke or high-risk TIA; experiment: AXIOMATIC-SSP vascular territory of incident infarcts at Day 90 compared with baseline; type: in vivo, human
Text: At baseline, recent ischemic lesions were detected and quantified using the DWI sequence. Incident infarcts (defined as new imaging lesions compared to the baseline MRI which may be associated with a symptomatic ischemic stroke or be covert in nature) were detected at Day 90 on the FLAIR sequence and categorized as DWI positive or DWI negative based on whether they could also be detected on the DWI sequence. DWI positive lesions at Day 90 were likely associated with infarctions occurring late during the follow-up period (approximately from Day 30 to Day 90) while DWI negative lesions were more likely related to earlier infarctions (approximately occurring by Day 30). The vascular territory of incident infarcts was also assessed at Day 90.

[3] = test system: patients with acute ischemic stroke or high-risk TIA
Text: As used herein, the “Bleeding Academic Research Consortium (BARC) Type 3 criteria” are: a. Overt bleeding plus hemoglobin drop of 3 to <5 g/dL (provided hemoglobin drop is related to bleed); transfusion with overt bleeding; b. Overt bleeding plus hemoglobin drop ≥5 g/dL (provided hemoglobin drop is related to bleed); cardiac tamponade; bleeding requiring surgical intervention for control; bleeding requiring IV vasoactive agents; or c. Intracranial hemorrhage confirmed by autopsy, imaging, or lumbar puncture; intraocular bleed compromising vision. See, e.g., Roxana Mehran, et al. Standardized Bleeding Definitions for Cardiovascular Clinical Trials, Circulation.
As used herein, the “Bleeding Academic Research Consortium (BARC) Type 5 criteria” are: a. Probable fatal bleeding; or b. Definite fatal bleeding (overt or autopsy or imaging confirmation). See, e.g., Roxana Mehran, et al. Standardized Bleeding Definitions for Cardiovascular Clinical Trials, Circulation.
As used herein, the “Bleeding Academic Research Consortium (BARC) Type 2 criteria” are: any clinically overt sign of hemorrhage that “is actionable” and requires diagnostic studies, hospitalization, or treatment by a health care professional. See, e.g., Roxana Mehran, et al. Standardized Bleeding Definitions for Cardiovascular Clinical Trials, Circulation.
The secondary endpoint of major bleeding was determined by the occurrence of types 3 and 5 bleeding, according to the Bleeding Academic Research Consortium (BARC) classification system. Roxana Mehran, et al. Standardized Bleeding Definitions for Cardiovascular Clinical Trials, Circulation. […] Bleeding was additionally evaluated utilizing International Society on Thrombosis and Haemostasis (ISTH) and PLATelet inhibition and patient Outcomes (PLATO) criteria.
The population for safety analysis includes all participants who received at least one dose of study medication. This is the primary population used in safety analysis and is analyzed according to the treatment assigned at randomization.
Analysis of all safety data will be performed on participants treated with ≥1 dose of double-blind drug. The proportion of participants with major bleeding events (BARC types 3 and 5), as well as BARC-, ISTH-, and PLATO-defined criteria, will be summarized by treatment group. Additional summaries will include characteristics of cerebral microbleeds, hemorrhagic transformation of ischemic stroke, and asymptomatic intracranial bleeding. Adverse event and laboratory data, as well as PK and PD data, will be summarized.

[4] = test system: patients with acute ischemic stroke or high-risk TIA; experiment: AXIOMATIC-SSP mRS at the time of first recurrent stroke; type: in vivo, human; settings: for mRS Change from Baseline Mean / mRS Change from Baseline Median / mRS Value Mean / mRS Value Median: first recurrent stroke
Text: National Institutes of Health Stroke Scale (NIHSS), Modified Rankin Scale (mRS), Montreal Cognitive Assessment (MoCA), and Digit Symbol Substitution Test (subtest of WAIS-IV) were collected at baseline (at randomization for NIHSS), on Days 21 and 90, and at the time of a new stroke event. MoCA and DSST (subset of WAIS-IV) were read by a third-party central laboratory blinded to treatment.
Descriptive statistics and corresponding change from baseline (where applicable) assessed by the National Institutes of Health Stroke Score (NIHSS), modified Rankin Scale (mRS), Montreal Cognitive Assessment (MoCA), and Digit Symbol Substitution Test (subtest of WAIS-IV) were summarized by treatment group.

C[C@@H]1CCC[C@H](n2cnc(-c3cc(Cl)ccc3-n3cc(Cl)nn3)cc2=O)c2cc(ccn2)-c2c(cnn2C(F)F)NC1=O [milvexian, (5R,9S)-9-(4-(5-chloro-2-(4-chloro-1H-1,2,3-triazol-1-yl)phenyl)-6-oxopyrimidin-1(6H)-yl)-21-(difluoromethyl)-5-methyl-21H-3-aza-1(4,2)-pyridina-2(5,4)-pyrazolacyclonaphan-4-one]
efficacy versus enoxaparin in AXIOMATIC-TKR [1]: comparable efficacy to enoxaparin
Incident infarcts at Day 90 by vascular territory: subjects (percent, in parentheses) ([2]; ACA, 25 BID, N = 285): (1.1)
Incident infarcts at Day 90 by vascular territory: subjects (percent, in parentheses) ([2]; ACA, 25 QD, N = 305): (0.3)
Incident infarcts at Day 90 by vascular territory: subjects (percent, in parentheses) ([2]; ACA, 50 BID, N = 306): (1.3)
Incident infarcts at Day 90 by vascular territory: subjects (percent, in parentheses) ([2]; AChA, 50 BID, N = 306): (0.3)
Incident infarcts at Day 90 by vascular territory: subjects (percent, in parentheses) ([2]; AChA, 100 BID, N = 275): (0.4)
Incident infarcts at Day 90 by vascular territory: subjects (percent, in parentheses) ([2]; AChA, 200 BID, N = 311): (0.4)
Incident infarcts at Day 90 by vascular territory: subjects (percent, in parentheses) ([2]; BASILAR - MIDBRAIN, 25 QD, N = 305): (0.3)
Incident infarcts at Day 90 by vascular territory: subjects (percent, in parentheses) ([2]; BASILAR - PONS, 50 BID, N = 306): (0.3)
Incident infarcts at Day 90 by vascular territory: subjects (percent, in parentheses) ([2]; BASILAR - THALAMUS, 25 BID, N = 285): (0.7)
Incident infarcts at Day 90 by vascular territory: subjects (percent, in parentheses) ([2]; BASILAR - THALAMUS, 25 QD, N = 305): (0.3)
Incident infarcts at Day 90 by vascular territory: subjects (percent, in parentheses) ([2]; BASILAR - THALAMUS, 50 BID, N = 306): (0.3)
Incident infarcts at Day 90 by vascular territory: subjects (percent, in parentheses) ([2]; LENTICULO-STRIATE ARTERIES, 25 BID, N = 285): (2.1)
Incident infarcts at Day 90 by vascular territory: subjects (percent, in parentheses) ([2]; LENTICULO-STRIATE ARTERIES, 25 QD, N = 305): (2.0)
Incident infarcts at Day 90 by vascular territory: subjects (percent, in parentheses) ([2]; LENTICULO-STRIATE ARTERIES, 50 BID, N = 306): (1.3)
Incident infarcts at Day 90 by vascular territory: subjects (percent, in parentheses) ([2]; LENTICULO-STRIATE ARTERIES, 100 BID, N = 275): (1.5)
Incident infarcts at Day 90 by vascular territory: subjects (percent, in parentheses) ([2]; LENTICULO-STRIATE ARTERIES, 200 BID, N = 311): (1.5)
Incident infarcts at Day 90 by vascular territory: subjects (percent, in parentheses) ([2]; MCA, 25 BID, N = 285): (4.9)
Incident infarcts at Day 90 by vascular territory: subjects (percent, in parentheses) ([2]; MCA, 25 QD, N = 305): (4.9)
Incident infarcts at Day 90 by vascular territory: subjects (percent, in parentheses) ([2]; MCA, 50 BID, N = 306): (4.2)
Incident infarcts at Day 90 by vascular territory: subjects (percent, in parentheses) ([2]; MCA, 100 BID, N = 275): (4.7)
Incident infarcts at Day 90 by vascular territory: subjects (percent, in parentheses) ([2]; MCA, 200 BID, N = 311): (4.7)
Incident infarcts at Day 90 by vascular territory: subjects (percent, in parentheses) ([2]; PCA, 25 BID, N = 285): (1.4)
Incident infarcts at Day 90 by vascular territory: subjects (percent, in parentheses) ([2]; PCA, 25 QD, N = 305): (2.6)
Incident infarcts at Day 90 by vascular territory: subjects (percent, in parentheses) ([2]; PCA, 50 BID, N = 306): (2.0)
Incident infarcts at Day 90 by vascular territory: subjects (percent, in parentheses) ([2]; PCA, 100 BID, N = 275): (2.5)
Incident infarcts at Day 90 by vascular territory: subjects (percent, in parentheses) ([2]; PCA, 200 BID, N = 311): (2.5)
Incident infarcts at Day 90 by vascular territory: subjects (percent, in parentheses) ([2]; PICA, 25 BID, N = 285): (1.1)
Incident infarcts at Day 90 by vascular territory: subjects (percent, in parentheses) ([2]; PICA, 25 QD, N = 305): (0.3)
Incident infarcts at Day 90 by vascular territory: subjects (percent, in parentheses) ([2]; PICA, 100 BID, N = 275): (1.1)
Incident infarcts at Day 90 by vascular territory: subjects (percent, in parentheses) ([2]; PICA, 200 BID, N = 311): (1.1)
Incident infarcts at Day 90 by vascular territory: subjects (percent, in parentheses) ([2]; SCA, 25 BID, N = 285): (0.7)
Incident infarcts at Day 90 by vascular territory: subjects (percent, in parentheses) ([2]; SCA, 25 QD, N = 305): (0.7)
Incident infarcts at Day 90 by vascular territory: subjects (percent, in parentheses) ([2]; SCA, 100 BID, N = 275): (0.4)
Incident infarcts at Day 90 by vascular territory: subjects (percent, in parentheses) ([2]; SCA, 200 BID, N = 311): (0.4)
BARC Type 5 (fatal) bleeding, subjects n ([3]; 25 mg BID, N = 313): 0
BARC Type 5 bleeding, Incidence Rate (n/N %) ([3]; 25 mg BID, N = 313): (0) %
BARC Type 5 (fatal) bleeding, subjects n ([3]; 25 mg QD, N = 325): 0
BARC Type 5 bleeding, Incidence Rate (n/N %) ([3]; 25 mg QD, N = 325): (0) %
BARC Type 5 (fatal) bleeding, subjects n ([3]; 50 mg BID, N = 325): 0
BARC Type 5 bleeding, Incidence Rate (n/N %) ([3]; 50 mg BID, N = 325): (0) %
BARC Type 5 (fatal) bleeding, subjects n ([3]; 100 mg BID, N = 306): 0
BARC Type 5 bleeding, Incidence Rate (n/N %) ([3]; 100 mg BID, N = 306): (0) %
BARC Type 5 (fatal) bleeding, subjects n ([3]; 200 mg BID, N = 344): 0
BARC Type 5 bleeding, Incidence Rate (n/N %) ([3]; 200 mg BID, N = 344): (0) %
fatal bleeding ([3]; all treatment arms): No fatal bleeding
incidence rate (n/N %) of bleeding endpoint (BARC Type 3 and 5) ([3]; human, in vivo, 90 days): 0.6-1.6%
mRS Change from Baseline Mean ([4]; 25 BID, N 10): 2.1
mRS Change from Baseline Median ([4]; 25 BID, N 10): 2.0
mRS Value Mean ([4]; 25 BID, N 10): 2.6
mRS Value Median ([4]; 25 BID, N 10): 3.0
mRS Change from Baseline Mean ([4]; 25 QD, N 13): 1.9
mRS Change from Baseline Median ([4]; 25 QD, N 13): 2.0
mRS Value Mean ([4]; 25 QD, N 13): 2.7
mRS Value Median ([4]; 25 QD, N 13): 3.0
mRS Change from Baseline Mean ([4]; 50 BID, N 11): 1.7
mRS Change from Baseline Median ([4]; 50 BID, N 11): 1.0
mRS Value Mean ([4]; 50 BID, N 11): 2.3
mRS Value Median ([4]; 50 BID, N 11): 2.0
mRS Change from Baseline Mean ([4]; 100 BID, N 8): 2.4
mRS Change from Baseline Median ([4]; 100 BID, N 8): 2.5
mRS Value Mean ([4]; 100 BID, N 8): 2.9
mRS Value Median ([4]; 100 BID, N 8): 3.0
mRS Change from Baseline Mean ([4]; 200 BID, N 19): 1.4
mRS Change from Baseline Median ([4]; 200 BID, N 19): 1.0
mRS Value Mean ([4]; 200 BID, N 19): 1.8
mRS Value Median ([4]; 200 BID, N 19): 1.0
mRS score at the time of a new stroke event compared with placebo ([4]; milvexian arms): numerically lower
